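Grown in 96-well plates, cells were treated for 48 hours with each compound at five concentrations. Insufficient inhibition: endpoint recorded as highest concentration tested. GI50 is the concentration that inhibits growth by half. TGI is the concentration that stops growth completely.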
Experiments:
Test in all cases: NCI tumour cell line growth inhibition, 48 h
SF-295 CNS = system: SF-295 CNS
NCI-H23 lung = system: NCI-H23 lung
IGROV1 ovarian = system: IGROV1 ovarian
HCT-116 colon = system: HCT-116 colon
OVCAR-3 ovarian = system: OVCAR-3 ovarian
OVCAR-5 ovarian = system: OVCAR-5 ovarian
MDA-MB-231 breast = system: MDA-MB-231 breast
U251 CNS = system: U251 CNS
SF-268 CNS = system: SF-268 CNS
SK-OV-3 ovarian = system: SK-OV-3 ovarian
TK-10 renal = system: TK-10 renal
SF-539 CNS = system: SF-539 CNS
HS 578T breast = system: HS 578T breast
A498 renal = system: A498 renal
NCI/ADR-RES ovarian = system: NCI/ADR-RES ovarian
ACHN renal = system: ACHN renal
KM12 colon = system: KM12 colon
UACC-257 melanoma = system: UACC-257 melanoma
SW-620 colon = system: SW-620 colon
SK-MEL-2 melanoma = system: SK-MEL-2 melanoma
T-47D breast = system: T-47D breast
OVCAR-4 ovarian = system: OVCAR-4 ovarian
K-562 leukemia = system: K-562 leukemia
CAKI-1 renal = system: CAKI-1 renal
SN12C renal = system: SN12C renal
HOP-92 NSCLC = system: HOP-92 NSCLC
SNB-19 CNS = system: SNB-19 CNS
SK-MEL-28 melanoma = system: SK-MEL-28 melanoma
LOX IMVI melanoma = system: LOX IMVI melanoma
HOP-62 NSCLC = system: HOP-62 NSCLC
A549 NSCLC = system: A549 NSCLC
UACC-62 melanoma = system: UACC-62 melanoma
NCI-H460 lung = system: NCI-H460 lung
DU-145 prostate = system: DU-145 prostate
SNB-75 CNS = system: SNB-75 CNS
RXF 393 renal = system: RXF 393 renal
PC-3 prostate = system: PC-3 prostate
RPMI-8226 leukemia = system: RPMI-8226 leukemia
HL-60(TB) leukemia = system: HL-60(TB) leukemia
EKVX NSCLC = system: EKVX NSCLC
SK-MEL-5 melanoma = system: SK-MEL-5 melanoma
BT-549 breast = system: BT-549 breast
MDA-MB-435 = system: MDA-MB-435
SR leukemia = system: SR leukemia
COLO 205 colon = system: COLO 205 colon
M14 melanoma = system: M14 melanoma
HT29 colon = system: HT29 colon
HCT-15 colon = system: HCT-15 colon
NCI-H226 lung = system: NCI-H226 lung
OVCAR-8 ovarian = system: OVCAR-8 ovarian
MOLT-4 leukemia = system: MOLT-4 leukemia
HCC-2998 colon = system: HCC-2998 colon
NCI-H522 lung = system: NCI-H522 lung
MALME-3M melanoma = system: MALME-3M melanoma

Which GI50 (SF-295 CNS) does the source give for `O=C(Nc1ccc(Cl)cc1)Nc1ccc(Oc2nncc3ccccc23)cc1` here?
The GI50 was 2.54 µM.

What about the TGI (SF-295 CNS) of the same compound?
Its TGI is 6.27 µM.

What about the GI50 (NCI-H23 lung) of the same compound?
The GI50 was 0.751 µM.

And the TGI (NCI-H23 lung)?
Its TGI is 2.87 µM.

And the GI50 (IGROV1 ovarian)?
Its GI50 is 1.16 µM.

What about the TGI (IGROV1 ovarian) of the same compound?
Its TGI is 5 µM.

And the GI50 (HCT-116 colon)?
Its GI50 is 0.326 µM.

And the TGI (HCT-116 colon)?
The TGI was 1.2 µM.

And the GI50 (OVCAR-3 ovarian)?
The GI50 was 0.354 µM.

And the TGI (OVCAR-3 ovarian)?
Its TGI is 1.15 µM.

And the GI50 (OVCAR-5 ovarian)?
Its GI50 is 1.89 µM.

And the TGI (OVCAR-5 ovarian)?
The TGI was 4.47 µM.

And the GI50 (MDA-MB-231 breast)?
The GI50 was 0.399 µM.

And the TGI (MDA-MB-231 breast)?
The TGI was 3.68 µM.

And the GI50 (U251 CNS)?
The GI50 was 1.01 µM.

And the TGI (U251 CNS)?
Its TGI is 2.38 µM.

What about the GI50 (SF-268 CNS) of the same compound?
Its GI50 is 1.35 µM.

And the TGI (SF-268 CNS)?
Its TGI is 7.21 µM.

And the GI50 (SK-OV-3 ovarian)?
Its GI50 is 1.74 µM.

And the TGI (SK-OV-3 ovarian)?
Its TGI is 5.48 µM.

And the GI50 (TK-10 renal)?
Its GI50 is 2.12 µM.

And the TGI (TK-10 renal)?
Its TGI is 4.28 µM.

And the GI50 (SF-539 CNS)?
Its GI50 is 0.28 µM.

What about the TGI (SF-539 CNS) of the same compound?
The TGI was 1.13 µM.

What about the GI50 (HS 578T breast) of the same compound?
Its GI50 is 0.696 µM.

And the TGI (HS 578T breast)?
Its TGI is 47 µM.

What about the GI50 (A498 renal) of the same compound?
The GI50 was 1.5 µM.

And the TGI (A498 renal)?
Its TGI is 3.06 µM.

What about the GI50 (NCI/ADR-RES ovarian) of the same compound?
Its GI50 is 2.63 µM.

And the TGI (NCI/ADR-RES ovarian)?
Its TGI is over 100 µM.

What about the GI50 (ACHN renal) of the same compound?
Its GI50 is 1.05 µM.

And the TGI (ACHN renal)?
The TGI was 2.33 µM.

And the GI50 (KM12 colon)?
The GI50 was 0.888 µM.

And the TGI (KM12 colon)?
The TGI was 2.65 µM.

What about the GI50 (UACC-257 melanoma) of the same compound?
Its GI50 is 1.5 µM.

What about the TGI (UACC-257 melanoma) of the same compound?
Its TGI is 4.04 µM.

And the GI50 (SW-620 colon)?
The GI50 was 0.348 µM.

What about the TGI (SW-620 colon) of the same compound?
The TGI was 1.6 µM.

And the GI50 (SK-MEL-2 melanoma)?
The GI50 was 1.57 µM.

What about the TGI (SK-MEL-2 melanoma) of the same compound?
The TGI was 3.65 µM.

What about the GI50 (T-47D breast) of the same compound?
The GI50 was 0.245 µM.

What about the TGI (T-47D breast) of the same compound?
The TGI was 0.768 µM.

And the GI50 (OVCAR-4 ovarian)?
Its GI50 is 0.753 µM.

What about the TGI (OVCAR-4 ovarian) of the same compound?
The TGI was 3.49 µM.

What about the GI50 (K-562 leukemia) of the same compound?
Its GI50 is 0.376 µM.

And the TGI (K-562 leukemia)?
Its TGI is 10.9 µM.

And the GI50 (CAKI-1 renal)?
The GI50 was 2.72 µM.

And the TGI (CAKI-1 renal)?
Its TGI is 8.7 µM.

What about the GI50 (SN12C renal) of the same compound?
Its GI50 is 1.03 µM.

What about the TGI (SN12C renal) of the same compound?
Its TGI is 3.58 µM.

And the GI50 (HOP-92 NSCLC)?
The GI50 was 1.64 µM.

And the TGI (HOP-92 NSCLC)?
Its TGI is 4.38 µM.

What about the GI50 (SNB-19 CNS) of the same compound?
Its GI50 is 1.74 µM.

What about the TGI (SNB-19 CNS) of the same compound?
Its TGI is 4.79 µM.

And the GI50 (SK-MEL-28 melanoma)?
The GI50 was 0.422 µM.

And the TGI (SK-MEL-28 melanoma)?
The TGI was 1.65 µM.

And the GI50 (LOX IMVI melanoma)?
Its GI50 is 0.166 µM.

What about the TGI (LOX IMVI melanoma) of the same compound?
Its TGI is 0.455 µM.

And the GI50 (HOP-62 NSCLC)?
The GI50 was 1.09 µM.

What about the TGI (HOP-62 NSCLC) of the same compound?
Its TGI is 4.32 µM.

What about the GI50 (A549 NSCLC) of the same compound?
The GI50 was 2.81 µM.

What about the TGI (A549 NSCLC) of the same compound?
Its TGI is 11.5 µM.

What about the GI50 (UACC-62 melanoma) of the same compound?
The GI50 was 1.08 µM.

And the TGI (UACC-62 melanoma)?
Its TGI is 3.46 µM.

What about the GI50 (NCI-H460 lung) of the same compound?
Its GI50 is 2.79 µM.

What about the TGI (NCI-H460 lung) of the same compound?
Its TGI is 8.32 µM.

What about the GI50 (DU-145 prostate) of the same compound?
Its GI50 is 0.736 µM.

And the TGI (DU-145 prostate)?
The TGI was 2.08 µM.

What about the GI50 (SNB-75 CNS) of the same compound?
Its GI50 is 0.451 µM.

And the TGI (SNB-75 CNS)?
Its TGI is 1.95 µM.

What about the GI50 (RXF 393 renal) of the same compound?
Its GI50 is 0.312 µM.

And the TGI (RXF 393 renal)?
Its TGI is 1.05 µM.

And the GI50 (PC-3 prostate)?
Its GI50 is 1.64 µM.

What about the TGI (PC-3 prostate) of the same compound?
Its TGI is 6.08 µM.

What about the GI50 (RPMI-8226 leukemia) of the same compound?
The GI50 was 0.488 µM.

And the TGI (RPMI-8226 leukemia)?
Its TGI is 4.58 µM.

And the GI50 (HL-60(TB) leukemia)?
Its GI50 is 1.08 µM.

What about the TGI (HL-60(TB) leukemia) of the same compound?
Its TGI is 13.4 µM.

And the GI50 (EKVX NSCLC)?
Its GI50 is 1.61 µM.

What about the TGI (EKVX NSCLC) of the same compound?
The TGI was 4.5 µM.

What about the GI50 (SK-MEL-5 melanoma) of the same compound?
Its GI50 is 1.2 µM.

And the TGI (SK-MEL-5 melanoma)?
The TGI was 2.81 µM.

What about the GI50 (BT-549 breast) of the same compound?
Its GI50 is 2.08 µM.

What about the TGI (BT-549 breast) of the same compound?
The TGI was 7.43 µM.

What about the GI50 (MDA-MB-435) of the same compound?
The GI50 was 0.29 µM.

And the TGI (MDA-MB-435)?
The TGI was 1.07 µM.

And the GI50 (SR leukemia)?
The GI50 was 0.401 µM.

What about the TGI (SR leukemia) of the same compound?
Its TGI is over 100 µM.

What about the GI50 (COLO 205 colon) of the same compound?
The GI50 was 1.18 µM.

What about the TGI (COLO 205 colon) of the same compound?
Its TGI is 2.92 µM.

And the GI50 (M14 melanoma)?
Its GI50 is 1.12 µM.

And the TGI (M14 melanoma)?
Its TGI is 3.16 µM.

And the GI50 (HT29 colon)?
Its GI50 is 0.465 µM.

What about the TGI (HT29 colon) of the same compound?
Its TGI is 2.39 µM.

What about the GI50 (HCT-15 colon) of the same compound?
Its GI50 is 0.961 µM.

And the TGI (HCT-15 colon)?
The TGI was 3.08 µM.

And the GI50 (NCI-H226 lung)?
The GI50 was 0.623 µM.

And the TGI (NCI-H226 lung)?
The TGI was 5.42 µM.

And the GI50 (OVCAR-8 ovarian)?
The GI50 was 1.1 µM.

What about the TGI (OVCAR-8 ovarian) of the same compound?
The TGI was 13.6 µM.

And the GI50 (MOLT-4 leukemia)?
The GI50 was 0.376 µM.

What about the TGI (MOLT-4 leukemia) of the same compound?
The TGI was over 100 µM.

And the GI50 (HCC-2998 colon)?
The GI50 was 1.84 µM.

And the TGI (HCC-2998 colon)?
The TGI was 3.48 µM.

What about the GI50 (NCI-H522 lung) of the same compound?
The GI50 was 0.193 µM.

What about the TGI (NCI-H522 lung) of the same compound?
Its TGI is 0.419 µM.

And the GI50 (MALME-3M melanoma)?
Its GI50 is 0.448 µM.

And the TGI (MALME-3M melanoma)?
Its TGI is 2.31 µM.
